Tests used:
E. faecalis = assay: MBEC, biofilm eradication, E. faecalis; type: cell-based, Enterococcus faecalis; details: 24 hours, 37 °C, TSB
Experimental: (§1) A regrowth assay was used to establish the MBEC of a compound to evaluate the antibiofilm activity.
(§2) Biofilm eradication experiments were performed using a pegged-lid microtiter plate assay to determine the MBEC values for compounds of interest, as previously described. […] Sci. Rep. 2017, 7, 2003; and Raval, Y. S., Flurin, L., Mohamed, A., Greenwood-Quaintance, K. E., Beyenal, H., & Patel, R. In Vitro Activity of Hydrogen Peroxide and Hypochlorous Acid Generated by Electrochemical Scaffolds Against Planktonic and Biofilm Bacteria. Antimicrob Agents Chemother. 2021, 65, e01966-20. Briefly, […] of mid-log phase culture diluted to ca. 10^6 CFU/mL in tryptic soy broth (TSB) was added to wells of plat-bottom 96-well plates (Thermo Scientific, 266120) and covered with 96-pegged lid (Thermo Scientific, 445497). Plates were incubated to establish bacterial biofilms after incubation at 37 °C for 24 hours. The pegged lid was then removed, washed with PBS, and transferred to another 96-well plate containing 2-fold serial dilutions of the test compounds (the “challenge plate”). The total volume in each well was […], comprising of […] of compound diluted in water/DMSO, with a starting DMSO concentration of 2.5%, and […] of TSB. Plates were incubated statically at 37 °C for 24 hours. Next, the pegged lids were transferred to a fresh 96-well plate containing […] of TSB and incubated overnight at 37 °C. MBEC values were determined as the lowest test concentration that resulted eradicated biofilm (i.e., wells displaying no turbidity in the final plate).

P. aeruginosa = assay: MBEC, biofilm eradication, P. aeruginosa; type: cell-based, Pseudomonas aeruginosa; details: 24 hours, 37 °C, TSB
Experimental: as §1, §2

A. baumannii [1] = assay: MBEC, biofilm eradication, A. baumannii; type: cell-based, Acinetobacter baumannii; details: 24 hours, 37 °C, TSB
Experimental: as §1, §2

HA-MRSA = assay: MBEC, biofilm eradication, HA-MRSA; type: cell-based, Staphylococcus aureus; details: 24 hours, 37 °C, TSB
Experimental: as §1, §2

HA-MRSA (ATCC 33591) = assay: MIC against hospital-acquired methicillin-resistant S. aureus (HA-MRSA); type: cell-based; details: Staphylococcus aureus, 72 h
Experimental: (§3) The term “minimum inhibitory concentration (MIC)” means the lowest concentration of an antimicrobial agent that will inhibit the visible growth of a microorganism after overnight incubation. MIC values against bacteria, for example, the Gram-positive Staphylococcus aureus and Enterococcus faecalis and the Gram-negative Escherichia coli and Pseudomonas aeruginosa were determined by standard methods. See also P. A. Wayne, Methods for Dilution Antimicrobial Tests for Bacteria that Grow Aerobically; Approved Standard, Ninth Edition, 2012, CLSI Document M07-A9, Vol. 32 No. 2.
(§4) Biological testing procedures were adapted from prior work by Melander and coworkers. For all biological assays, laboratory strains of methicillin-susceptible Staphylococcus aureus MSSA (SH1000), Staphylococcus aureus CA-MRSA (USA300-0114), Staphylococcus aureus HA-MRSA (ATCC 33591), Escherichia coli (MC4100), Enterococcus faecalis (OG1RF), Acinetobacter baumannii (ATCC 17978), were grown with shaking at 37 °C overnight from freezer stocks in 5 mL of the indicated media: SH1000, OG1RF, MC4100, USA300-0114, and ATCC 17978 were grown in BDTM Mueller-Hinton broth (MHB), whereas ATCC 33591 was grown in BDTM tryptic soy broth (TSB). The inoculum were then streaked onto Mueller-Hinton agar (MHA) plates and grown overnight at 37 °C. From the plates, single colonies were selected, diluted into 50 mL of fresh media and grown overnight at 37 °C with shaking for use in the MIC assays. Optical density (OD) measurements were obtained using a SpectraMax iD3 plate reader (Molecular Devices, United States).
(§5) Compounds were serially diluted two-fold from stock solutions (1.0 mM) to yield twelve 100 μL test concentrations, wherein the starting concentration of dimethyl sulfoxide (DMSO) was 2.5%. Overnight S. aureus, E. faecalis, E. coli, A. baumannii, USA300-0114 (CA-MRSA), and ATCC 33591 (HA-MRSA) cultures were diluted to ca. 10^6 CFU/mL in MHB or TSB and regrown to mid-exponential phase, as determined by optical density recorded at 600 nm (OD600). All cultures were then diluted again to ca. 10^6 CFU/mL and 100 μL were inoculated into each well of a U-bottom 96-well plate (Corning, 351177) containing 100 μL of compound solution. Plates were incubated statically at 37 °C for 72 hours upon which wells were evaluated visually for bacterial growth. The MIC was determined as the lowest concentration of compound resulting in no bacterial growth visible to the naked eye, based on the highest value in three independent experiments. Aqueous DMSO controls were conducted as appropriate for each compound.
(§6) The prepared library of biscationic amphiphilic compounds was assessed for performance as antibacterial disinfectants by determining the minimum inhibitory concentration (MIC) for each against a panel of bacteria. The bacteria selected for the study were chosen to evaluate the broad spectrum antimicrobial performance of the QPCs, and therefore, included both Gram-positive and Gram-negative bacterial strains, including those with known antimicrobial resistance mechanisms. These bacteria include the Gram-positive strains of methicillin-susceptible Staphylococcus aureus [MSSA; SH1000], community-acquired methicillin-resistant Staphylococcus aureus [CA-MRSA; USA 300-0114], hospital-acquired methicillin-resistant Staphylococcus aureus [HA-MRSA; ATCC 33591] and the […], Escherichia coli [MC4100], Acinetobacter baumannii [ATCC 17498] and Pseudomonas aeruginosa [PAO1].

MSSA (SH1000) = assay: MIC against methicillin-susceptible S. aureus (MSSA); type: cell-based; details: Staphylococcus aureus; MSSA (SH1000); 72 hours, 37 °C; read-out: MIC
Experimental: as §3, §4, §5, §6

E. faecalis (OG1RF) = assay: MIC against E. faecalis; type: cell-based; details: Enterococcus faecalis, 72 h
Experimental: as §3, §4, §5, §6

panel of bacteria [2] = assay: MIC across the panel of bacteria (Gram-positive and Gram-negative); type: cell-based; details: for MIC: read-out: MIC values; for antimicrobial activity / bioactivity (in words): over the bacterial panel
Experimental: as §3, §4, §5, §6

A. baumannii [3] = assay: MIC against A. baumannii; type: cell-based; details: Acinetobacter baumannii, 72 h
Experimental: as §3, §4, §5, §6

CA-MRSA (USA300-0114) = assay: MIC against community-acquired methicillin-resistant S. aureus (CA-MRSA); type: cell-based; details: Staphylococcus aureus, 72 h
Experimental: as §3, §4, §5, §6

E. coli (MC4100) = assay: MIC against E. coli; type: cell-based; details: Escherichia coli, 72 hours, 37 °C
Experimental: as §3, §4, §5, §6

red blood cells = assay: Red Blood Cell (RBC) Lysis Assay (lysis20); type: cell-based, sheep; details: for Lysis20: concentration inducing 20% RBC lysis, sheep blood, 1 hour, 37 °C
Experimental: RBC lysis assays were performed on mechanically defibrinated sheep blood (Hemostat Labs: DSB030). An aliquot of 1.5 mL blood was placed into a microcentrifuge tube and centrifuged at 3,800 rpm for ten minutes. The supernatant was removed, and the cells were resuspended with 1 mL of phosphate-buffered saline (PBS). The suspension was centrifuged as described above, the supernatant was removed, and cells were resuspended 4 additional times in 1 mL PBS. The final cell suspension was diluted twentyfold with PBS. Compounds were serially diluted with PBS two-fold from stock solutions (1.0 mM) to yield 100 μL of twelve test concentrations on a flat-bottom 96-well plate (Corning, 351172), wherein the starting concentration of DMSO was 2.5%. To each of the wells, 100 μL of the twentyfold suspension dilution was then inoculated. TritonX (1% by volume) served as a positive control (100% lysis marker) and sterile PBS served as a negative control (0% lysis marker). Samples were then placed in an incubator at 37 °C and shaken at 200 rpm. After 1 hour, the samples were centrifuged at 3,800 rpm for ten minutes. The absorbance of the supernatant was measured with a UV spectrometer at a 540 nm wavelength. The concentration inducing 20% RBC lysis was then calculated for each compound based upon the absorbances of the TritonX and PBS controls. Aqueous DMSO controls were conducted as appropriate for each compound.
The potential cytotoxicity of the compounds was also considered with the evaluation of hemolysis (lysis20) assays with 20% lysis of red blood cells serving as an indicator of potentially toxic compounds. Finally, the bioactivity of these compounds were benchmarked against a commercial benzalkonium chloride source (BAC; 70% benzyldimethyldodecylammonium chloride, and 30% benzyldimethyltetradecylammonium chloride) as well as some previously reported disinfectant compounds from the inventors' groups; included were bisQPC ^PhP6P-10,10 as well as ^PhP2P-10,10 and 12(2)12. A detailed description of the experimental procedures used to evaluate bioactivity and hemolysis assays are described above.

P. aeruginosa (PAO1) = assay: MIC against P. aeruginosa; type: cell-based; details: Pseudomonas aeruginosa; P. aeruginosa (PAO1); 72 hours, 37 °C; read-out: MIC
Experimental: as §3, §4, §5, §6

panel of bacteria [4] = details: Gram-positive and Gram-negative pathogens; earlier generation compound; cited from earlier work

Row | Structure (SMILES) | MBEC (E. faecalis) | MBEC (P. aeruginosa) | MBEC (A. baumannii [1]) | MBEC (HA-MRSA) | MIC (HA-MRSA (ATCC 33591)) | MIC (MSSA (SH1000)) | MIC (E. faecalis (OG1RF)) | MIC (panel of bacteria [2]) | MIC (A. baumannii [3]) | MIC (CA-MRSA (USA300-0114)) | MIC (E. coli (MC4100)) | hemolysis (lysis20) (in words) (red blood cells) | Lysis20 (red blood cells) | MIC (P. aeruginosa (PAO1)) | antimicrobial activity / bioactivity (in words) (panel of bacteria [2]) | antimicrobial efficacy (in words, earlier work) (panel of bacteria [4])
1 | CCCCCCCCCC[N+](C)(C)CCCCCCCCCC.[Cl-] [DDAC, didecyldimethylammonium chloride] | 16 µM | >250 µM | 8 µM | 16 µM |  |  |  |  |  |  |  |  |  |  |  | 
2 | CCCCCCCCC[P+](CC[P+](CCCCCCCCC)(C1CCCCC1)C1CCCCC1)(C1CCCCC1)C1CCCCC1 [^CyP2P-9,9] |  |  |  |  | 2 µM | 1 µM | 16 µM | 16 µM | 16 µM | 1 µM | 16 µM | diminished hemolysis over the commercial BAC control | 125 µM | 32 µM |  | 
3 | CCCCCCCCCCC[P+](CC[P+](CCCCCCCCCCC)(C1CCCCC1)C1CCCCC1)(C1CCCCC1)C1CCCCC1 [^CyP2P-11,11] |  |  |  |  | 1 µM | 1 µM | 8 µM | 1 to 8 µM | 4 µM | 1 µM | 4 µM |  | 8 µM | 8 µM | single-digit micromolar activity | 
4 | CCCCCCCCCCCC[P+](CC)(CC)CC[P+](CC)(CC)CCCCCCCCCCCC [^EtP2P-12,12] |  |  |  |  | 1 µM | 1 µM | 16 µM |  | 2 µM | 1 µM | 2 µM |  | 8 µM | 8 µM | single-digit micromolar activity with just one exception | 
5 | CCCCCCCCCC[P+](CCCCCC[P+](CCCCCCCCCC)(c1ccccc1)c1ccccc1)(c1ccccc1)c1ccccc1 [^PhP6P-10,10, reference compound] |  |  |  |  | 1 µM | 1 µM | 2 µM | 1 to 4 µM | 4 µM | 1 µM | 2 µM |  | 8 µM | 2 µM |  | high degree of antimicrobial efficacy

— patent publication US20260374792A1, “PHENYL-FREE BISCATIONIC QUATERNARY PHOSPHONIUM COMPOUNDS AS ANTIMICROBIAL AGENTS” (priority 2022, published 2026)
